Laboratory results published in ChEMBL document CHEMBL1799965, “Synthesis of useful fragments in drug discovery: 2-Amino-5-tert-butylpyridine and its oxidised analogues” (Bioorg Med Chem Lett, 2011).
In brackets after ≈: the same amount, converted by molar mass.

How the values were obtained:
Albumin = Albumin (Homo sapiens, UniProt P02768); experiment: Binding affinity to human serum albumin by HPLC method
[1] = Lipophilicity, Log D of the compound by HPLC method; type: physicochemical
[2] = Solubility of the compound in buffer at pH 6.8; type: physicochemical
[3] = Membrane affinity to immobilized artificial membrane by HPLC method; type: physicochemical
[4] = Solubility of the compound in simulated fasted intestinal fluid; type: physicochemical; details: simulated gi fluid

Chain of Albumin (P02768 whole entry): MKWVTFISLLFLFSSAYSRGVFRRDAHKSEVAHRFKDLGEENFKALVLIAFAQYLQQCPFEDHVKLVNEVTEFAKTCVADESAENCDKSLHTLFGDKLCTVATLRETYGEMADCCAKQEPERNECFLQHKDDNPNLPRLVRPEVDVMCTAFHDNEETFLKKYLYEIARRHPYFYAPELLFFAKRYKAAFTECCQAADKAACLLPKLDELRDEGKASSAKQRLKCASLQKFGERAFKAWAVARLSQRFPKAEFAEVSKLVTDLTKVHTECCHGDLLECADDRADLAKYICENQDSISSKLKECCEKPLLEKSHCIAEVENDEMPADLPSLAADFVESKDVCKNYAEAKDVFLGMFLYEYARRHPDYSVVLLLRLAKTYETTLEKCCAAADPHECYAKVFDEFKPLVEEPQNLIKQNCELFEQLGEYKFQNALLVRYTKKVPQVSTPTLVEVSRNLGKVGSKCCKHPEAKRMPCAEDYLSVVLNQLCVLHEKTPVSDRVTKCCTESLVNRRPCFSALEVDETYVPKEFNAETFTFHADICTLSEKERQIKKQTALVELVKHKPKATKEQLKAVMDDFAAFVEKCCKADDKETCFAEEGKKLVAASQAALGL

| Activity (Albumin) | logD [1] | solubility [2] | CHI [3] | solubility [4] | SMILES |
| --- | --- | --- | --- | --- | --- |
| 38.9% | 1.53 | 59 µM (≈ 8.86 µg/mL) | 33 | 72 µM (≈ 10.8 µg/mL) | CC(C)(C)c1ccc(N)nc1 |
| 78.5% | 2.83 | < 5 µM | 35.5 | < 5 µM | CC(C)(C)c1ccc(N)cc1 |
